Test results as given in ChEMBL document CHEMBL1240305, “Alkylation of duplex DNA in nucleosome core particles by duocarmycin SA and yatakemycin” (Nat Chem Biol, 2006).
Calls of active or inactive are those of the source. The calls are words filed in the database; no cut-off is given here.

Columns and labels:
Format in all cases: nucleic-acid assay
[1] = system: Nucleic Acid; assay: Induction of thermal cleavage in alpha satellite DNA 5'-GGAAAC-3' in […] at 10 uM at 25 degC after 17 hrs by non-denaturating gel electrophoresis
[2] = system: Nucleic Acid; assay: Induction of DNA alkylation-mediated […] at 25 degC after 16 hrs by non-denaturating gel electrophoresis
[3] = system: Nucleic Acid; assay: Binding affinity to alpha satellite DNA assessed as neucleosome reconstitution after 17 hrs at 25 degC by non-denaturating gel electrophoresis
[4] = system: Nucleic Acid; assay: Induction of thermal cleavage in protein free alpha satellite DNA 5'-CAAAAG-3' at 10 uM at 25 degC after 1 hr by non-denaturating gel electrophoresis
[5] = system: Nucleic Acid; assay: Induction of thermal cleavage in alpha satellite DNA 5'-CAAAAG-3' in […] at 10 uM at 25 degC after 17 hrs by non-denaturating gel electrophoresis
[6] = system: Nucleic Acid; assay: Induction of thermal cleavage in protein free alpha satellite DNA 5'-GGAAAC-3' at 10 uM at 25 degC after 17 hrs by non-denaturating gel electrophoresis
[7] = system: Nucleic Acid; assay: Induction of thermal cleavage in alpha satellite DNA at 10 uM at 25 degC after 1 hr by non-denaturating gel electrophoresis
[8] = system: Nucleic Acid; assay: Induction of thermal cleavage in alpha satellite DNA at 10 uM at 25 degC after 30 mins by non-denaturating gel electrophoresis
[9] = system: Nucleic Acid; assay: Induction of thermal cleavage in protein free alpha satellite DNA 5'-GAAACT-3' at 10 uM at 25 degC after 17 hrs by non-denaturating gel electrophoresis
[10] = system: Nucleic Acid; assay: Induction of thermal cleavage in alpha satellite DNA 5'-GAAACT-3' in […] at 10 uM at 25 degC after 17 hrs by non-denaturating gel electrophoresis

Activity [1] | Activity [2] | Activity [3] | Activity [4] | Activity [5] | Activity [6] | Activity [9] | Activity [10] | Compound | Activity [7] | Activity [8]
Active | Active | Active | Active | Active | Active | – | – | COc1cc2[nH]c(C(=O)N3C[C@H]4C[C@@]45C3=CC(=O)c3[nH]c(C(=O)N4CCc6c4c(O)c(OC)c4[nH]c(C(=O)SC)cc64)cc35)cc2cc1O | – | –
– | – | Active | – | – | Active | Active | Active | COc1cc2[nH]c(C(=O)N3C[C@@H]4C[C@]45C3=CC(=O)c3[nH]c(C(=O)N4CCc6c4c(O)c(OC)c4[nH]c(C(=O)SC)cc64)cc35)cc2cc1O | – | –

Compound | Activity [1] | Activity [2] | Activity [3] | Activity [4] | Activity [5] | Activity [6] | Activity [9] | Activity [10] | Activity [7] | Activity [8]
COC(=O)c1cc2c([nH]1)C(=O)C=C1N(C(=O)c3cc4cc(OC)c(OC)c(OC)c4[nH]3)C[C@H]3C[C@]123 | – | – | Active | – | – | Active | – | – | Active | 1 ×10⁻⁵ M
